Measurements as given in patent US20110053804A1, “Gene Signatures for the Prognosis of Cancer” (SLOAN-KETTERING INSTITUTE FOR CANCER RESEARCH, priority 2008, published 2011).

Assays:
Type in all cases: in vivo, mice
LM2 cells [1] = assay: Bone metastasis assay, intracardiac injection of TGFβ-pretreated LM2 cells; conditions: LM2 cells pre-treated with TGFβ prior to inoculation into the arterial circulation
Procedure: (§1) FIGS. 3A-D. (A) LM2 cells and a clinically-derived pleural effusion sample (CN34.2A) were pretreated with TGFβ for 6 h. LM2 (2×10^5) and CN34.2A (4×10^5) cells were injected into the lateral tail vein and lung colonization was analyzed by in vivo bioluminescence imaging. (B) Bar graph represents 24 h time point measurements of the normalized photon flux from animals injected with either LM2 or CN34.2A cells. (C) Bone metastasis assays were performed by intracardiac injection of LM2 or BoM-1833 cells (3×10^4). Samples were pretreated with […] of TGFβ for 6 h and compared to an untreated control. (D) Bar graphs represent seven-day time point analysis of the normalized photon flux from the mouse hind limbs.
(§2) To investigate the selectivity of this lung metastasis-priming effect, we tested the effect of TGFβ pre-incubation on the establishment of bone metastases. […]
(§3) For primary tumor analysis, 5×10^5 viable single cells were re-suspended in a 1:1 mixture of PBS and growth-factor-reduced Matrigel (BD Biosciences) and injected orthotopically into both mammary gland number four in a total volume of 100 μL as previously described (Minn et al., 2005). Primary tumor growth rates were analyzed by measuring tumour length (L) and width (W), and calculating tumor volume based on the formula […]. […] Lung metastatic progression was again monitored and quantified using bioluminescence. […]

BoM-1833 cells = assay: Bone metastasis assay, intracardiac injection of TGFβ-pretreated BoM-1833 cells; conditions: BoM-1833 cells pre-incubated with TGFβ
Procedure: as §1, §2, §3

LM2 cells [2] = assay: Lung colonization (priming) assay, tail vein injection of TGFβ-pretreated LM2 cells
Procedure: as §1, with “(D) Bar graphs represent seven-day time point analysis of the normalized photon flux from the mouse hind limbs.” left out
(§4) All animal work was done in accordance with a protocol approved by the MSKCC Institutional Animal Care and Use Committee. […] Seven days after mastectomies, lung metastases were monitored and quantified using non-invasive bioluminescence as previously described (Minn et al., 2005).
as §3

CN34.2A cells = assay: Lung colonization (priming) assay, tail vein injection of TGFβ-pretreated CN34.2A cells; conditions: CN34.2A cells pre-treated with TGFβ 6 h; 24 h time point, normalized photon flux
Procedure: as §1, with “(D) Bar graphs represent seven-day time point analysis of the normalized photon flux from the mouse hind limbs.” left out
as §4, §3

Substance: TGFβ: cytokine transforming growth factor beta; TGFβ1 (R&D Systems) used to treat cells for 3 or 6 h
- ability to form bone metastases (LM2 cells [1]): did not increase
- ability to form bone metastases (BoM-1833 cells): did not increase
- early seeding of the bones (BoM-1833 cells; seven-day time point, hind limbs): no discernible effect
- lung colonizing activity (retention of cells in the lungs) (LM2 cells [2]; LM2 cells incubated with TGFβ for 6 h prior to tail vein inoculation, 24 h after inoculation, bioluminescence): significantly increased
- increase of lung seeding activity (LM2 cells [2]; LM2 cells pre-treated with TGFβ 6 h, 24 h time point, normalized photon flux): three
- increase of lung seeding activity (CN34.2A cells): five
